Structures can show the parent of a compound that is named as a salt.
B1: ATP-binding cassette sub-family C member 2 (Rattus norvegicus) (protein)
chain: MDKFCNSTFWDLSLLESPEADLPLCFEQTVLVWIPLGFLWLLAPWQLYSVYRSRTKRSSITKFYLAKQVFVVFLLILAAIDLSLALTEDTGQATVPPVRYTNPILYLCTWLLVLAVQHSRQWCVRKNSWFLSLFWILSVLCGVFQFQTLIRALLKDSKSNMAYSYLFFVSYGFQIVLLILTAFSGPSDSTQTPSVTASFLSSITFSWYDRTVLKGYKHPLTLEDVWDIDEGFKTRSVTSKFEAAMTKDLQKARQAFQRRLQKSQRKPEATLHGLNKKQSQSQDVLVLEEAKKKSEKTTKDYPKSWLIKSLFKTFHVVILKSFILKLIHDLLVFLNPQLLKLLIGFVKSSNSYVWFGYICAILMFAVTLIQSFCLQSYFQHCFVLGMCVRTTVMSSIYKKALTLSNLARKQYTIGETVNLMSVDSQKLMDATNYMQLVWSSVIQITLSIFFLWRELGPSILAGVGVMVLLIPVNGVLATKIRNIQVQNMKNKDKRLKIMNEILSGIKILKYFAWEPSFQEQVQGIRKKELKNLLRFGQLQSLLIFILQITPILVSVVTFSVYVLVDSANVLNAEKAFTSITLFNILRFPLSMLPMVTSSILQASVSVDRLERYLGGDDLDTSAIRRVSNFDKAVKFSEASFTWDPDLEATIQDVNLDIKPGQLVAVVGTVGSGKSSLVSAMLGEMENVHGHITIQGSTAYVPQQSWIQNGTIKDNILFGSEYNEKKYQQVLKACALLPDLEILPGGDMAEIGEKGINLSGGQKQRVSLARAAYQDADIYILDDPLSAVDAHVGKHIFNKVVGPNGLLAGKTRIFVTHGIHFLPQVDEIVVLGKGTILEKGSYRDLLDKKGVFARNWKTFMKHSGPEGEATVNNDSEAEDDDDGLIPTMEEIPEDAASLAMRRENSLRRTLSRSSRSSSRRGKSLKNSLKIKNVNVLKEKEKEVEGQKLIKKEFVETGKVKFSIYLKYLQAVGWWSILFIILFYGLNNVAFIGSNLWLSAWTSDSDNLNGTNNSSSHRDMRIGVFGALGLAQGICLLISTLWSIYACRNASKALHGQLLTNILRAPMRFFDTTPTGRIVNRFSGDISTVDDLLPQTLRSWMMCFFGIAGTLVMICMATPVFAIIIIPLSILYISVQVFYVATSRQLRRLDSVTKSPIYSHFSETVTGLPIIRAFEHQQRFLAWNEKQIDINQKCVFSWITSNRWLAIRLELVGNLVVFCSALLLVIYRKTLTGDVVGFVLSNALNITQTLNWLVRMTSEAETNIVAVERISEYINVENEAPWVTDKRPPADWPRHGEIQFNNYQVRYRPELDLVLKGITCNIKSGEKVGVVGRTGAGKSSLTNCLFRILESAGGQIIIDGIDVASIGLHDLRERLTIIPQDPILFSGSLRMNLDPFNKYSDEEVWRALELAHLRSFVSGLQLGLLSEVTEGGDNLSIGQRQLLCLGRAVLRKSKILVLDEATAAVDLETDSLIQTTIRKEFSQCTVITIAHRLHTIMDSDKIMVLDNGKIVEYGSPEELLSNRGSFYLMAKEAGIENVNHTEL

Tests used:
Bile salt export pump [1] = target: T1, Bile salt export pump (Rattus norvegicus, UniProt O70127); assay: TP_TRANSPORTER: inhibition of Taurocholate uptake (Taurocholate: 1 uM) in canalicular membrane vesicles from SD rat; assay type: functional, cell membranes, Sprague-Dawley, Canalicular membrane vesicle
T1 sequence (O70127 whole entry): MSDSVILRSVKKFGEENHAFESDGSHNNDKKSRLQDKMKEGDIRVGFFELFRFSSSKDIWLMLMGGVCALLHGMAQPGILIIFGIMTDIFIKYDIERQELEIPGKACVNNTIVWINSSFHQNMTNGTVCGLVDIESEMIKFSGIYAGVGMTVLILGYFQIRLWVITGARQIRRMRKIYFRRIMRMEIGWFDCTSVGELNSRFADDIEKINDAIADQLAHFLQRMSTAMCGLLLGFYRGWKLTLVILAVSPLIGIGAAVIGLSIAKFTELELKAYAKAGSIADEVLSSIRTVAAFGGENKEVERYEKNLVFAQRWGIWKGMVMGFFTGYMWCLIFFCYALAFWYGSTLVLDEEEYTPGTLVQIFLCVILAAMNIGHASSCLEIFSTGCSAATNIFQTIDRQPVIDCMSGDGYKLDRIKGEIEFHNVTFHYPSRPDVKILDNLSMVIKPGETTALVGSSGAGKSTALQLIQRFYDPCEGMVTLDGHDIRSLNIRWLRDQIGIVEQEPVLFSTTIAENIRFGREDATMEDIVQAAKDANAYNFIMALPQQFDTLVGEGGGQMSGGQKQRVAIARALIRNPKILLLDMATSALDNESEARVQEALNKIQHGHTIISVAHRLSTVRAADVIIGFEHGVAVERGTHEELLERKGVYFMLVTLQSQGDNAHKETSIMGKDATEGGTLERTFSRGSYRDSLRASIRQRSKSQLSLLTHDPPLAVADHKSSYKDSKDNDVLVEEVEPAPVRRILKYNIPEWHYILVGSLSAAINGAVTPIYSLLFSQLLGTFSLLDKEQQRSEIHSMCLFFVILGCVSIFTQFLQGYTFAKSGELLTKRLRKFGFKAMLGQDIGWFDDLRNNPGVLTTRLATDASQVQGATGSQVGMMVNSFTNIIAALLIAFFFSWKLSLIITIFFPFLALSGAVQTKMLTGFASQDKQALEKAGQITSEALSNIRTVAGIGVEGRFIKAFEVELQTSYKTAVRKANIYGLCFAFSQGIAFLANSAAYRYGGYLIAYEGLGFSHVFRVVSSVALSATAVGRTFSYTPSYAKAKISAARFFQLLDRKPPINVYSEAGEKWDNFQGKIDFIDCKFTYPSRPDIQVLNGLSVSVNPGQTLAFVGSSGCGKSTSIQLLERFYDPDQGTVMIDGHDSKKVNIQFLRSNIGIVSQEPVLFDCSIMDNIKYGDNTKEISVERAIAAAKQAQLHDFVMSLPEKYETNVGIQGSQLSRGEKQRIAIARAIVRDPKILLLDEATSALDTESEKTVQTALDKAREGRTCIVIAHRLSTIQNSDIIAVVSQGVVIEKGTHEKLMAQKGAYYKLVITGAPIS

Bile salt export pump [2] = target: T1, Bile salt export pump; assay: TP_TRANSPORTER: inhibition of Taurocholate uptake (Taurocholate: 1 uM) in membrane vesicles isolated from Bsep-expressing Sf9 cells; assay type: functional, cell membranes, Membrane vesicle
[3] = substrate: C[C@H](CCC(=O)NCCS(=O)(=O)O)C1CC[C@H]2[C@@H]3[C@H](O)C[C@@H]4C[C@H](OS(=O)(=O)O)CC[C@]4(C)[C@H]3CC[C@]12C; assay: (§1) TP_TRANSPORTER: uptake in canalicular membrane vesicles from SD rat; assay type: functional, cell membranes, Srague-Dawley, Liver, Canalicular membrane vesicle
[4] = substrate: [H][C@]12CC[C@]3([H])[C@]([H])(CC[C@]4(C)C([C@H](C)CCC(=O)NCCS(=O)(=O)O)CC[C@@]34[H])[C@@]1(C)CC[C@@H](OS(=O)(=O)O)C2; assay: as §1; assay type: functional, cell membranes, Srague-Dawley, Liver, Canalicular membrane vesicle
[5] = substrate: [H][C@]12CC[C@]3([H])[C@]([H])(CC[C@]4(C)C([C@H](C)CCC(=O)NCCS(=O)(=O)O)CC[C@@]34[H])[C@@]1(C)CC[C@@H](OS(=O)(=O)O)C2; assay: TP_TRANSPORTER: uptake in membrane vesicles from Mrp2-expressing Sf9 cells; assay type: functional, cell membranes, Membrane vesicle

Row | Molecule | IC50 (Bile salt export pump [1]) [µM] | IC50 (Bile salt export pump [2]) [µM] | Km [3] [µM] | Km [4] [µM] | Km [5] [µM]
1 | C[C@H](CCC(=O)NCCS(=O)(=O)O)C1CC[C@H]2[C@@H]3CC[C@@H]4C[C@H](OS(=O)(=O)O)CC[C@]4(C)[C@H]3CC[C@]12C (some centres not stated) | 1.2 | 61.9 | – | – | –
2 | C[C@H](CCC(=O)NCCS(=O)(=O)O)C1CC[C@H]2[C@@H]3[C@H](O)C[C@@H]4C[C@H](OS(=O)(=O)O)CC[C@]4(C)[C@H]3CC[C@]12C (some centres not stated) [TAUROCHENODEOXYCHOLATE SULFATE] | 4.6 | 67.9 | – | – | –
3 | B1 | – | – | 8.8 | 1.5 | 3.9

From ChEMBL document CHEMBL2074553, “Characterization of bile acid transport mediated by multidrug resistance associated protein 2 and bile salt export pump” (Biochim Biophys Acta, 2001)
